From patent US20080051387A1, “TETRAHYDROPYRIDO[3,4-D]PYRIMIDINES AND RELATED ANALOGUES” (priority 2006, published 2008) come the findings set out here.

The assay concerns the target T1, chimeric human H3 receptor (Homo sapiens, UniProt Q9Y5N1).
T1 construct: rat Galpha-i2 (Gnai2, rat); made in house; host or cells: Sf9 insect cells (baculovirus); P2 membranes
The assay is described as follows: Chimeric human H3 receptor screening GTP binding assay (inhibition of histamine-stimulated GTP-gamma35S binding, Example 8). In kind it is biochemical. As to the method:
This Example illustrates a representative screening assay for evaluating inhibition of histamine-stimulated GTP-gamma^35S binding. Such GTP binding activity can be used to identify H3 antagonists and inverse agonists. A compound analyzed in this assay is referred to herein as a “test compound,” and the initial identification of antagonists and inverse agonists is performed using a test compound concentration of 4 μM.
Four independent baculoviral stocks (one directing the expression of the chimeric human H3 receptor and three directing the expression of each of the three subunits of a heterotrimeric G-protein) are used to infect a culture of Sƒ9 cells as described above. P2 membranes are prepared as described above, and are resuspended by Dounce homogenization (tight pestle) in GTP binding assay buffer (50 mM Tris pH 7.4, 120 mM NaCl, 5 mM MgCl2, 2 mM EGTA, 1 mg/ml BSA, 0.2 mg/ml bacitracin, 0.02 mg/ml aprotinin, 0.01 mg/ml saponin, 10 μM GDP) and added to assay tubes at a concentration of 35 μg protein/reaction tube. Non-radiolabeled test compounds are added to separate reactions at a concentration of 4 μM along with 1 μM histamine (agonist). Reactions are initiated by the addition of 125 pM GTP-gamma^35S with a final assay volume of 0.20 ml.
After a 60-min incubation at room temperature, reactions are terminated by vacuum filtration over GF/C filters (pre-soaked in 50 mM Tris pH 7.4, 120 mM NaCl plus 0.1% BSA) followed by washing with ice-cold buffer (50 mM Tris pH 7.4, 120 mM NaCl). The amount of receptor-bound (and thereby membrane-bound) GTP-gamma^35S is determined by measuring the bound radioactivity, preferably by liquid scintillation spectrometry of the washed filters. Non-specific binding is determined using 10 uM GTP-gammaS and typically represents less than 5 percent of total binding. After subtraction of non-specific binding, data is expressed as percent inhibition of 1 μM histamine signal.
Neutral antagonists are those test compounds that reduce the histamine-stimulated GTP binding activity towards, but not below, baseline levels. In contrast, in the absence of added histamine, inverse agonists reduce the GTP binding activity of the receptor-containing membranes below baseline. Any test compound that elevates GTP binding activity above baseline in the absence of added histamine in this assay is defined as having agonist activity.
In general terms: GTPγS resists hydrolysis and so accumulates on activated G proteins.

Setting [1] is: 1 h, assay of Example 8, symbol "!" in column headed Ki, read-out: percent inhibition of agonist-induced GTP-gammaS binding to H3.
The mark [2] stands for this setting: symbol ! in Ki, test compound 4 μM, 1 μM histamine, read-out: percent inhibition of agonist-induced GTP-gammaS binding to H3.
The mark [3] stands for this setting: 1 h, assay described in Example 8, symbol "!" in column headed Ki, read-out: Ki ("!": percent inhibition of agonist-induced GTP-gammaS binding to H3).

Like-named read-outs stand apart in the source and are kept apart here.

T1 sequence (Q9Y5N1 with tags, fused parts or gaps): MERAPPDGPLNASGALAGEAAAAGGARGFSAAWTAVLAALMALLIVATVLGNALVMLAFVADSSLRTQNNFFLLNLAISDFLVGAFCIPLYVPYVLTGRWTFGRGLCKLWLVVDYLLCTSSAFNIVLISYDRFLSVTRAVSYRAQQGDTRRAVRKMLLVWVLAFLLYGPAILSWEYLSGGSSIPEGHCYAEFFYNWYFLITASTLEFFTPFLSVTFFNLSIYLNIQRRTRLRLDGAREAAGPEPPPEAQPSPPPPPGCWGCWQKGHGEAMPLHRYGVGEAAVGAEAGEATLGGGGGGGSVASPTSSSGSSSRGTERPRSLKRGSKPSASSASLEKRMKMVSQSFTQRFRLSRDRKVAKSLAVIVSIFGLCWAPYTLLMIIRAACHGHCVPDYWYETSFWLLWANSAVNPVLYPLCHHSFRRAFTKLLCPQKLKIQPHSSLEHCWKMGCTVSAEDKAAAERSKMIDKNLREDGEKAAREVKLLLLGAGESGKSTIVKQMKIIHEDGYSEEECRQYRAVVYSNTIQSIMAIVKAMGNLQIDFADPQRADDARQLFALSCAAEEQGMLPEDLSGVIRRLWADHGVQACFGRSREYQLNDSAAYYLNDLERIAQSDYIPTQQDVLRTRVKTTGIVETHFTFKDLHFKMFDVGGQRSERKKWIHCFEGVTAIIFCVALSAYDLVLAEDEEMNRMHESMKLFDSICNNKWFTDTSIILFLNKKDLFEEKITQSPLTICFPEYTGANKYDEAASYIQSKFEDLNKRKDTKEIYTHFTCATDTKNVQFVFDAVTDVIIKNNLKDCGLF

On to `O=C(Cc1ccc(Cl)c(Cl)c1)N1CCc2cnc(N3CCN(C4CCC4)CC3)nc2CC1` [Compound 293, 2-(4-cyclobutylpiperazin-1-yl)-7-[(3,4-dichlorophenyl)acetyl]-6,7,8,9-tetrahydro-5H-pyrimido[4,5-d]azepine], for which the inhibition – broadly, the change of the read-out against control, counted positive when it falls – at 4 µM under setting [1] was no less than 90%.
The same measure, in the same setting: the result for `COc1nc(N2CCN(C3CCC3)CC2)nc2c1CCN(C(=O)c1ccccc1)CC2` [Compound 270, 7-benzoyl-2-(4-cyclobutylpiperazin-1-yl)-4-methoxy-6,7,8,9-tetrahydro-5H-pyrimido[4,5-d]azepine] reads no less than 90%; that for `COc1cccc(CC(=O)N2CCc3cnc(N4CCN(C5CCC5)CC4)nc3CC2)c1` [Compound 273, 2-(4-cyclobutylpiperazin-1-yl)-7-[(3-methoxyphenyl)acetyl]-6,7,8,9-tetrahydro-5H-pyrimido[4,5-d]azepine], no less than 90%.
`c1ccc(CN2CCc3cnc(N4CCN(C5CCC5)CC4)nc3CC2)cc1` [Compound 229, 7-benzyl-2-(4-cyclobutylpiperazin-1-yl)-6,7,8,9-tetrahydro-5H-pyrimido[4,5-d]azepine]: the inhibition at 4 µM under setting [1] is no less than 90%.
Take `Cc1cccc(CN2CCc3nc(N4CCN(C5CCC5)CC4)ncc3C2)n1` [Compound 619, 2-(4-cyclobutylpiperazin-1-yl)-6-[(6-methylpyridin-2-yl)methyl]-5,6,7,8-tetrahydropyrido[4,3-d]pyrimidine]: the inhibition at 4 µM under setting [2] is no less than 90%.
Turning to `Cc1c(C(=O)N2CCc3cnc(N4CCN(C5CCC5)CC4)nc3CC2)cnn1-c1ccccc1` [Compound 504, 2-(4-cyclobutylpiperazin-1-yl)-7-[(5-methyl-1-phenyl-1H-pyrazol-4-yl)carbonyl]-6,7,8,9-tetrahydro-5H-pyrimido[4,5-d]azepine], the inhibition at 4 µM under setting [3] is no less than 90%.
The same measure, in the same setting: to `Cc1cnc(C(=O)N2CCc3cnc(N4CCN(C5CCC5)CC4)nc3CC2)cn1` [Compound 486, 2-(4-cyclobutylpiperazin-1-yl)-7-[(5-methylpyrazin-2-yl)carbonyl]-6,7,8,9-tetrahydro-5H-pyrimido[4,5-d]azepine] belongs no less than 90%.
On the same count and under the same terms, the result for `O=C(Cc1ccc(F)cc1)N1CCc2cnc(N3CCN(C4CCC4)CC3)nc2CC1` [Compound 516, 2-(4-cyclobutylpiperazin-1-yl)-7-[(4-fluorophenyl)acetyl]-6,7,8,9-tetrahydro-5H-pyrimido[4,5-d]azepine] reads no less than 90%; that for `O=C(c1ccc(-n2cccc2)nc1)N1CCc2cnc(N3CCN(C4CCC4)CC3)nc2CC1` [Compound 480, 2-(4-cyclobutylpiperazin-1-yl)-7-{[6-(1H-pyrrol-1-yl)pyridin-3-yl]carbonyl}-6,7,8,9-tetrahydro-5H-pyrimido[4,5-d]azepine], no less than 90%.
With `COc1cc(C(=O)N2CCc3cnc(N4CCN(C5CCC5)CC4)nc3CC2)cc(OC)c1OC` [Compound 384, 2-(4-cyclobutylpiperazin-1-yl)-7-(3,4,5-trimethoxybenzoyl)-6,7,8,9-tetrahydro-5H-pyrimido[4,5-d]azepine], the inhibition at 4 µM under setting [3] is no less than 90%.
Take `COc1ccc(OC)c(/C=C/C(=O)N2CCc3cnc(N4CCN(C5CCC5)CC4)nc3CC2)c1` [Compound 574, 2-(4-cyclobutylpiperazin-1-yl)-7-[(2E)-3-(2,5-dimethoxyphenyl)prop-2-enoyl]-6,7,8,9-tetrahydro-5H-pyrimido[4,5-d]azepine]: the inhibition at 4 µM under setting [3] is no less than 90%.
Turning to `CCn1cncc1CN1CCc2nc(N3CCN(C4CCC4)CC3)ncc2C1` [Compound 642, 2-(4-cyclobutylpiperazin-1-yl)-6-[(1-ethyl-1H-imidazol-5-yl)methyl]-5,6,7,8-tetrahydropyrido[4,3-d]pyrimidine], the inhibition at 4 µM under setting [2] was no less than 90%.
For `O=C(C1CCCO1)N1CCc2cnc(N3CCN(C4CCC4)CC3)nc2CC1` (stereo not drawn) [Compound 220, 2-(4-cyclobutylpiperazin-1-yl)-7-(tetrahydrofuran-2-ylcarbonyl)-6,7,8,9-tetrahydro-5H-pyrimido[4,5-d]azepine], under setting [1], the inhibition at 4 µM was no less than 90%.
In the case of `O=C(c1ccc(OCC(F)(F)F)nc1)N1CCc2cnc(N3CCN(C4CCC4)CC3)nc2CC1` [Compound 474, 2-(4-cyclobutylpiperazin-1-yl)-7-{[6-(2,2,2-trifluoroethoxy)pyridin-3-yl]carbonyl}-6,7,8,9-tetrahydro-5H-pyrimido[4,5-d]azepine], the inhibition at 4 µM under setting [3] is no less than 90%.
For `Cc1c(F)cccc1CN1CCc2ncnc(N3CCN(C4CCC4)CC3)c2CC1` [Compound 179, 4-(4-cyclobutylpiperazin-1-yl)-7-(3-fluoro-2-methylbenzyl)-6,7,8,9-tetrahydro-5H-pyrimido[4,5-d]azepine], the inhibition at 4 µM under setting [2] is no less than 90%.
On to `Cc1ccc(C)c(OCC(=O)N2CCc3cnc(N4CCN(C5CCC5)CC4)nc3CC2)c1` [Compound 334, 2-(4-cyclobutylpiperazin-1-yl)-7-[(2,5-dimethylphenoxy)acetyl]-6,7,8,9-tetrahydro-5H-pyrimido[4,5-d]azepine], for which, under setting [1], the inhibition at 4 µM was no less than 90%.
Still for that read-out and setting: the result for `CC(Oc1ccccc1Cl)C(=O)N1CCc2cnc(N3CCN(C4CCC4)CC3)nc2CC1` (stereo not drawn) [Compound 344, 7-[2-(2-chlorophenoxy)propanoyl]-2-(4-cyclobutylpiperazin-1-yl)-6,7,8,9-tetrahydro-5H-pyrimido[4,5-d]azepine] reads no less than 90%; that for `Cc1ccc(C(=O)N2CCc3cnc(N4CCN(C5CCC5)CC4)nc3CC2)cc1C` [Compound 360, 2-(4-cyclobutylpiperazin-1-yl)-7-(3,4-dimethylbenzoyl)-6,7,8,9-tetrahydro-5H-pyrimido[4,5-d]azepine], no less than 90%.
In the case of `COc1ccc(Br)c(OC)c1C(=O)N1CCc2cnc(N3CCN(C4CCC4)CC3)nc2CC1` [Compound 414, 7-(3-bromo-2,6-dimethoxybenzoyl)-2-(4-cyclobutylpiperazin-1-yl)-6,7,8,9-tetrahydro-5H-pyrimido[4,5-d]azepine], under setting [3], the inhibition at 4 µM is no less than 90%.
The same measure, in the same setting: to `Cc1cc(C)c(C(=O)N2CCc3cnc(N4CCN(C5CCC5)CC4)nc3CC2)c(C)c1` [Compound 405, 2-(4-cyclobutylpiperazin-1-yl)-7-(mesitylcarbonyl)-6,7,8,9-tetrahydro-5H-pyrimido[4,5-d]azepine] belongs no less than 90%.
On to `COc1ccc(OC)c(CN2CCc3ncnc(N4CCN(C5CCC5)CC4)c3CC2)c1` [Compound 176, 4-(4-cyclobutylpiperazin-1-yl)-7-(2,5-dimethoxybenzyl)-6,7,8,9-tetrahydro-5H-pyrimido[4,5-d]azepine], for which the inhibition at 4 µM under setting [2] was no less than 90%.
Regarding `CCCC(C)CN1CCc2nc(N3CCN(C4CCC4)CC3)ncc2C1` (stereo not drawn) [Compound 635, 2-(4-cyclobutylpiperazin-1-yl)-6-(2-methylpentyl)-5,6,7,8-tetrahydropyrido[4,3-d]pyrimidine], the inhibition at 4 µM under setting [2] is no less than 90%.
For `O=C(c1cccc(Cl)c1)N1CCc2cnc(N3CCN(C4CCC4)CC3)nc2CC1` [Compound 386, 7-(3-chlorobenzoyl)-2-(4-cyclobutylpiperazin-1-yl)-6,7,8,9-tetrahydro-5H-pyrimido[4,5-d]azepine], under setting [3], the inhibition at 4 µM is no less than 90%.
On the same count and under the same terms, to `CCn1c(C(=O)N2CCc3cnc(N4CCN(C5CCC5)CC4)nc3CC2)cc2ccccc21` [Compound 462, 2-(4-cyclobutylpiperazin-1-yl)-7-[(1-ethyl-1H-indol-2-yl)carbonyl]-6,7,8,9-tetrahydro-5H-pyrimido[4,5-d]azepine] belongs no less than 90%.
With `c1nc2c(c(N3CCN(C4CCC4)CC3)n1)CCN(Cc1ccc3c(c1)OCCO3)CC2` [Compound 173, 4-(4-cyclobutylpiperazin-1-yl)-7-(2,3-dihydro-1,4-benzodioxin-6-ylmethyl)-6,7,8,9-tetrahydro-5H-pyrimido[4,5-d]azepine], the inhibition at 4 µM under setting [2] was no less than 90%.
For the compound `CCCCc1ccc(C(=O)N2CCc3cnc(N4CCN(C5CCC5)CC4)nc3CC2)nc1` [Compound 489, 7-[(5-butylpyridin-2-yl)carbonyl]-2-(4-cyclobutylpiperazin-1-yl)-6,7,8,9-tetrahydro-5H-pyrimido[4,5-d]azepine], under setting [3], the inhibition at 4 µM was no less than 90%.
As for `CNC(=O)c1ccc(N2CCc3cnc(N4CCN(C5CCC5)CC4)nc3CC2)nc1` [Compound 186, 6-[2-(4-cyclobutylpiperazin-1-yl)-5,6,8,9-tetrahydro-7H-pyrimido[4,5-d]azepin-7-yl]-N-methylnicotinamide], the inhibition at 4 µM under setting [1] was no less than 90%.
